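Compound exposure: 48 hours, 5 concentrations, 96-well plates. TGI marks complete inhibition of growth.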
What was measured:
Assay in all cases: inhibition of tumour cell growth, NCI panel, 48 h
SK-MEL-5 melanoma = test system: SK-MEL-5 melanoma
CAKI-1 renal = test system: CAKI-1 renal
HCC-2998 colon = test system: HCC-2998 colon
SR leukemia = test system: SR leukemia
NCI-H226 lung = test system: NCI-H226 lung
HOP-62 NSCLC = test system: HOP-62 NSCLC
MOLT-4 leukemia = test system: MOLT-4 leukemia
UACC-257 melanoma = test system: UACC-257 melanoma
UO-31 renal = test system: UO-31 renal
TK-10 renal = test system: TK-10 renal
SF-268 CNS = test system: SF-268 CNS
OVCAR-3 ovarian = test system: OVCAR-3 ovarian
ACHN renal = test system: ACHN renal
786-0 renal = test system: 786-0 renal
LOX IMVI melanoma = test system: LOX IMVI melanoma
SF-539 CNS = test system: SF-539 CNS
K-562 leukemia = test system: K-562 leukemia
SW-620 colon = test system: SW-620 colon
SK-MEL-2 melanoma = test system: SK-MEL-2 melanoma
IGROV1 ovarian = test system: IGROV1 ovarian
A498 renal = test system: A498 renal
NCI-H522 lung = test system: NCI-H522 lung
MALME-3M melanoma = test system: MALME-3M melanoma
NCI-H460 lung = test system: NCI-H460 lung
PC-3 prostate = test system: PC-3 prostate
M14 melanoma = test system: M14 melanoma
SK-OV-3 ovarian = test system: SK-OV-3 ovarian
HL-60(TB) leukemia = test system: HL-60(TB) leukemia
OVCAR-8 ovarian = test system: OVCAR-8 ovarian
SF-295 CNS = test system: SF-295 CNS
DU-145 prostate = test system: DU-145 prostate
MCF7 breast = test system: MCF7 breast
T-47D breast = test system: T-47D breast
NCI-H23 lung = test system: NCI-H23 lung
U251 CNS = test system: U251 CNS
MDA-MB-231 breast = test system: MDA-MB-231 breast
RXF 393 renal = test system: RXF 393 renal
A549 NSCLC = test system: A549 NSCLC
BT-549 breast = test system: BT-549 breast
SNB-19 CNS = test system: SNB-19 CNS
HT29 colon = test system: HT29 colon
OVCAR-4 ovarian = test system: OVCAR-4 ovarian
COLO 205 colon = test system: COLO 205 colon
SNB-75 CNS = test system: SNB-75 CNS
OVCAR-5 ovarian = test system: OVCAR-5 ovarian
UACC-62 melanoma = test system: UACC-62 melanoma
HS 578T breast = test system: HS 578T breast
HCT-15 colon = test system: HCT-15 colon
HCT-116 colon = test system: HCT-116 colon
NCI/ADR-RES ovarian = test system: NCI/ADR-RES ovarian
EKVX NSCLC = test system: EKVX NSCLC
SK-MEL-28 melanoma = test system: SK-MEL-28 melanoma
CCRF-CEM leukemia = test system: CCRF-CEM leukemia
MDA-N = test system: MDA-N
RPMI-8226 leukemia = test system: RPMI-8226 leukemia
HOP-92 NSCLC = test system: HOP-92 NSCLC
KM12 colon = test system: KM12 colon
SN12C renal = test system: SN12C renal
MDA-MB-435 = test system: MDA-MB-435

Structure (SMILES): C[C@]12CC[C@H](O)C[C@@H]1CC[C@@H]1[C@@H]2CC[C@]2(C)[C@@H](c3cc(C(F)(F)F)n[nH]3)CC[C@@H]12
- TGI (SK-MEL-5 melanoma): 19.6 µM
- TGI (CAKI-1 renal): 26.9 µM
- TGI (HCC-2998 colon): 34.4 µM
- TGI (SR leukemia): 15.3 µM
- TGI (NCI-H226 lung): 36.7 µM
- TGI (HOP-62 NSCLC): 23 µM
- TGI (MOLT-4 leukemia): 19.7 µM
- TGI (UACC-257 melanoma): 16.8 µM
- TGI (UO-31 renal): 3.1 µM
- TGI (TK-10 renal): 16 µM
- TGI (SF-268 CNS): > 53.6 µM
- TGI (OVCAR-3 ovarian): 24.8 µM
- TGI (ACHN renal): 20 µM
- TGI (786-0 renal): 17 µM
- TGI (LOX IMVI melanoma): 21.7 µM
- TGI (SF-539 CNS): 22.5 µM
- TGI (K-562 leukemia): 15.3 µM
- TGI (SW-620 colon): 37.3 µM
- TGI (SK-MEL-2 melanoma): 33.1 µM
- TGI (IGROV1 ovarian): 19.8 µM
- TGI (A498 renal): 21.1 µM
- TGI (NCI-H522 lung): > 43.8 µM
- TGI (MALME-3M melanoma): > 53.3 µM
- TGI (NCI-H460 lung): 15.3 µM
- TGI (PC-3 prostate): 20.7 µM
- TGI (M14 melanoma): 23.9 µM
- TGI (SK-OV-3 ovarian): 28.4 µM
- TGI (HL-60(TB) leukemia): 2.89 µM
- TGI (OVCAR-8 ovarian): 21 µM
- TGI (SF-295 CNS): 16.9 µM
- TGI (DU-145 prostate): 22.9 µM
- TGI (MCF7 breast): 21.1 µM
- TGI (T-47D breast): 23.6 µM
- TGI (NCI-H23 lung): 24.7 µM
- TGI (U251 CNS): 24.1 µM
- TGI (MDA-MB-231 breast): 18.9 µM
- TGI (RXF 393 renal): 16.5 µM
- TGI (A549 NSCLC): 23.1 µM
- TGI (BT-549 breast): 23 µM
- TGI (SNB-19 CNS): 28.3 µM
- TGI (HT29 colon): 18.4 µM
- TGI (OVCAR-4 ovarian): 20.2 µM
- TGI (COLO 205 colon): 16.2 µM
- TGI (SNB-75 CNS): 24.5 µM
- TGI (OVCAR-5 ovarian): 23.5 µM
- TGI (UACC-62 melanoma): 27.4 µM
- TGI (HS 578T breast): > 58.9 µM
- TGI (HCT-15 colon): 24.3 µM
- TGI (HCT-116 colon): 14 µM
- TGI (NCI/ADR-RES ovarian): 23.3 µM
- TGI (EKVX NSCLC): 28.2 µM
- TGI (SK-MEL-28 melanoma): 26.9 µM
- TGI (CCRF-CEM leukemia): 5.43 µM
- TGI (MDA-N): 25.4 µM
- TGI (RPMI-8226 leukemia): 22.7 µM
- TGI (HOP-92 NSCLC): 9.07 µM
- TGI (KM12 colon): 25.6 µM
- TGI (SN12C renal): 21.7 µM
- TGI (MDA-MB-435): 22.9 µM

Structure (SMILES): CCCOc1cc2c(cc1O)CC[C@@H]1[C@@H]2CC[C@]2(C)[C@@H](O)CC[C@@H]12
- TGI (SK-MEL-5 melanoma): 12.1 µM
- TGI (CAKI-1 renal): 23.5 µM
- TGI (HCC-2998 colon): 17.6 µM
- TGI (SR leukemia): 16.7 µM
- TGI (NCI-H226 lung): 55 µM
- TGI (HOP-62 NSCLC): 14.1 µM
- TGI (MOLT-4 leukemia): 14.2 µM
- TGI (UACC-257 melanoma): > 58.7 µM
- TGI (UO-31 renal): > 57.2 µM
- TGI (TK-10 renal): 54.7 µM
- TGI (SF-268 CNS): > 59.7 µM
- TGI (OVCAR-3 ovarian): > 46.2 µM
- TGI (ACHN renal): > 56.2 µM
- TGI (786-0 renal): 30.5 µM
- TGI (LOX IMVI melanoma): 34.5 µM
- TGI (SF-539 CNS): 4.44 µM
- TGI (K-562 leukemia): 5.33 µM
- TGI (SW-620 colon): > 35.5 µM
- TGI (SK-MEL-2 melanoma): 11.3 µM
- TGI (IGROV1 ovarian): > 100 µM
- TGI (A498 renal): 20.7 µM
- TGI (NCI-H522 lung): 3.52 µM
- TGI (MALME-3M melanoma): > 100 µM
- TGI (NCI-H460 lung): 26.5 µM
- TGI (PC-3 prostate): > 51.6 µM
- TGI (M14 melanoma): 36.8 µM
- TGI (SK-OV-3 ovarian): 50.5 µM
- TGI (HL-60(TB) leukemia): 18.9 µM
- TGI (OVCAR-8 ovarian): > 59.1 µM
- TGI (SF-295 CNS): 14.7 µM
- TGI (DU-145 prostate): 27.2 µM
- TGI (MCF7 breast): 37.2 µM
- TGI (T-47D breast): > 45 µM
- TGI (NCI-H23 lung): > 55.5 µM
- TGI (U251 CNS): 34.2 µM
- TGI (MDA-MB-231 breast): 27.7 µM
- TGI (RXF 393 renal): 10.4 µM
- TGI (A549 NSCLC): > 56.3 µM
- TGI (BT-549 breast): 20.1 µM
- TGI (SNB-19 CNS): > 100 µM
- TGI (HT29 colon): 25.9 µM
- TGI (OVCAR-4 ovarian): > 65.5 µM
- TGI (COLO 205 colon): 30 µM
- TGI (SNB-75 CNS): 32.4 µM
- TGI (OVCAR-5 ovarian): > 65.4 µM
- TGI (UACC-62 melanoma): 30.8 µM
- TGI (HS 578T breast): 11.3 µM
- TGI (HCT-15 colon): > 35.3 µM
- TGI (HCT-116 colon): 42 µM
- TGI (NCI/ADR-RES ovarian): 39 µM
- TGI (EKVX NSCLC): > 57.7 µM
- TGI (SK-MEL-28 melanoma): > 50.4 µM
- TGI (CCRF-CEM leukemia): > 37.4 µM
- TGI (MDA-N): 2.14 µM
- TGI (RPMI-8226 leukemia): 23.7 µM
- TGI (HOP-92 NSCLC): > 60.4 µM
- TGI (KM12 colon): > 55.5 µM
- TGI (SN12C renal): 37.8 µM
- TGI (MDA-MB-435): 5.91 µM
